Assay [1] deals with T1, human recombinant HDAC1 (Homo sapiens, UniProt Q13547).
T1 construct: purchased Enzo Life Sciences, Inc. BML-SE456
The experiment in a line: In vitro HDAC enzyme activity inhibition assay (HDAC1). Type of assay: biochemical. As to conditions: Fluor de Lys-SIRT1 substrate 10 μM, 30° C., 60 minutes, fluorescence. The gist of the method:
(§1)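 Fluorimetric deacetylase kit: human recombinant HDAC1 or HDAC6 (0.3 μg) with 10 μM Fluor de Lys-SIRT1 substrate and 5-fold diluted compounds, 60 min at 30° C. Developer added for 30 min, fluorescence read at Ex 360/Em 460, IC50 calculated.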

In assay [2] the target is T2, human recombinant HDAC6 (Homo sapiens, UniProt Q9UBN7).
T2 construct: purchased Calbiochem Inc. 382180
T2 sequence (Q9UBN7 1-1215): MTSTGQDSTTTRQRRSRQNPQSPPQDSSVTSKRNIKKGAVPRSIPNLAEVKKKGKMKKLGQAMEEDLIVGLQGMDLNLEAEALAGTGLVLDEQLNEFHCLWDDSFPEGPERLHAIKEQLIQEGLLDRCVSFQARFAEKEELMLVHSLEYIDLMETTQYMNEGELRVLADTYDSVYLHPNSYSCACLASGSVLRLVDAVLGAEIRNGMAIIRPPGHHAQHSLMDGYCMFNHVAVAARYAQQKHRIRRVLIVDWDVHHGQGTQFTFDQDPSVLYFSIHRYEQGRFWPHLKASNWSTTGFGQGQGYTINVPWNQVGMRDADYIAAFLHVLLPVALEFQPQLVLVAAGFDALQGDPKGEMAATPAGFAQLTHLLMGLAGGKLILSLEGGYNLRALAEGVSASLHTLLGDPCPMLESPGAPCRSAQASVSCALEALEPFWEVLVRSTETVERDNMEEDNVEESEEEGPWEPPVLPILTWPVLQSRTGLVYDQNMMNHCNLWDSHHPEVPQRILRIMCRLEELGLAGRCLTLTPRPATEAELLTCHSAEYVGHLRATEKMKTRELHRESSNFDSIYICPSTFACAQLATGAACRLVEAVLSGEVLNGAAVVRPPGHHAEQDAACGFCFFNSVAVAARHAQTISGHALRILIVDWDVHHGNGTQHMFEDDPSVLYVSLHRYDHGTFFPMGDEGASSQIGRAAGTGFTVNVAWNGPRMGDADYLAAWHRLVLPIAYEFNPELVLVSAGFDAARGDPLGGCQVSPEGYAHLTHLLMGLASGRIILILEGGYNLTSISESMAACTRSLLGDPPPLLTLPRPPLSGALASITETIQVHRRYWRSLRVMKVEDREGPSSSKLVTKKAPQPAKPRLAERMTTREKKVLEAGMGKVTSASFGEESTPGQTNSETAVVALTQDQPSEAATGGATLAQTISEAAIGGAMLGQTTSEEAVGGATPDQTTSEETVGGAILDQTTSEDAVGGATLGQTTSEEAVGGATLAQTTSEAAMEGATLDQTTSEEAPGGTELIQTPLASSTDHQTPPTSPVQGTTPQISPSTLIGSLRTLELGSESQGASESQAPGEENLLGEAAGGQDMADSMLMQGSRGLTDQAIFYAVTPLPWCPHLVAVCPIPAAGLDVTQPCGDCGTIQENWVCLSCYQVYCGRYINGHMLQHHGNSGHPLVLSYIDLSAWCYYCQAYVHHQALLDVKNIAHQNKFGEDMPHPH
In words: In vitro HDAC enzyme activity inhibition assay (HDAC6). Type of assay: biochemical. The note with it: for HDAC6 selectivity (fold): HDAC6 over HDAC1; for IC50: same protocol as the HDAC1 test, human recombinant HDAC6 (Calbiochem). In a few lines:
as §1

T1 sequence (Q13547 whole entry): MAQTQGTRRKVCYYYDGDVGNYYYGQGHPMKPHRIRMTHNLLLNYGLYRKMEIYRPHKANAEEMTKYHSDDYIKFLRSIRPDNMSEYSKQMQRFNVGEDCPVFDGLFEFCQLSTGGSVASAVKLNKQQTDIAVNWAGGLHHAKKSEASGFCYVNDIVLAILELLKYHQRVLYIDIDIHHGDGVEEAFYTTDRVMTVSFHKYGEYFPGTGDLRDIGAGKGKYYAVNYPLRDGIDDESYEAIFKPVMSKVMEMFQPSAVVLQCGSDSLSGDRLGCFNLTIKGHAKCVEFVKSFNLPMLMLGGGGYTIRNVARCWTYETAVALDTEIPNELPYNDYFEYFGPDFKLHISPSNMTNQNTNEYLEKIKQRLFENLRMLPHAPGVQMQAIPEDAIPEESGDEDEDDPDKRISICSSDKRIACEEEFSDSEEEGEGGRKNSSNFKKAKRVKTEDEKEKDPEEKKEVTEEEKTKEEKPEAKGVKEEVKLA

Turning to `O=C(C1COC1)N1CCN(S(=O)(=O)N(Cc2cn3ccc(-c4nnc(C(F)F)o4)cc3n2)c2cccc(F)c2)CC1` [Compound 4310, N-((7-(5-(difluoromethyl)-1,3,4-oxadiazol-2-yl)imidazo[1,2-a]pyridin-2-yl)methyl)-N-(3-fluorophenyl)-4-(oxetane-3-carbonyl)piperazine-1-sulfonamide], the IC50 in assay [1] was more than 50000 nM. In assay [2], the “HDAC6 selectivity (fold)” value is 681 fold and the IC50 turned out to be 73.4 nM.

For `O=C(C1COC1)N1CCC(S(=O)(=O)N(Cc2cn3ccc(-c4nnc(C(F)F)o4)cc3n2)c2cccc(F)c2)CC1` [Compound 4249, N-((7-(5-(difluoromethyl)-1,3,4-oxadiazol-2-yl)imidazo[1,2-a]pyridin-2-yl)methyl)-N-(3-fluorophenyl)-1-(oxetan-3-carbonyl)piperidine-4-sulfonamide], in assay [1], the IC50 was more than 50000 nM. In assay [2], the “HDAC6 selectivity (fold)” value is recorded as 684 fold and the IC50 stood at 73.1 nM.

As to `CCC(=O)N1CCN(S(=O)(=O)N(Cc2cn3ccc(-c4nnc(C(F)F)o4)cc3n2)c2cccc(F)c2)CC1` [Compound 4307, N-((7-(5-(difluoromethyl)-1,3,4-oxadiazol-2-yl)imidazo[1,2-a]pyridin-2-yl)methyl)-N-(3-fluorophenyl)-4-propionylpiperazine-1-sulfonamide], the IC50 in assay [1] was more than 50000 nM. Also, in assay [2], the “HDAC6 selectivity (fold)” value turned out to be 365 fold and the IC50 is 137 nM.

On to `CN1CCC(S(=O)(=O)N(Cc2cn3ccc(-c4nnc(C(F)F)o4)cc3n2)c2cccc(F)c2)CC1` [Compound 4236, N-((7-(5-(difluoromethyl)-1,3,4-oxadiazol-2-yl)imidazo[1,2-a]pyridin-2-yl)methyl)-N-(3-fluorophenyl)-1-methylpiperidine-4-sulfonamide], for which the IC50 in assay [1] was more than 50000 nM. Moreover, in assay [2], the “HDAC6 selectivity (fold)” value was determined as 678 fold and the IC50 amounted to 73.8 nM.

As for `O=C(C1COC1)N1CCN(S(=O)(=O)N(Cc2cn3ccc(-c4nnc(C(F)F)o4)cc3n2)c2ccccc2)CC1` [Compound 4269, N-((7-(5-(difluoromethyl)-1,3,4-oxadiazol-2-yl)imidazo[1,2-a]pyridin-2-yl)methyl)-4-(oxetan-3-carbonyl)-N-phenylpiperazine-1-sulfonamide], the IC50 in assay [1] is more than 50000 nM. For the same compound, in assay [2], the “HDAC6 selectivity (fold)” value came out at 259 fold and the IC50 was 193 nM.

Consider `CN(C)C(=O)N1CCC(S(=O)(=O)N(Cc2cn3ccc(-c4nnc(C(F)F)o4)cc3n2)c2cccc(F)c2)CC1` [Compound 4253, 4—(N-((7-(5-(difluoromethyl)-1,3,4-oxadiazol-2-yl)imidazo[1,2-a]pyridin-2-yl)methyl)-N-(3-fluorophenyl)sulfamoyl)-N, N-dimethylpiperidine-1-carboxamide], for which, in assay [1], the IC50 is more than 50000 nM. Further, in assay [2], the “HDAC6 selectivity (fold)” value is 503 fold and the IC50 is 99.4 nM.

`O=S(=O)(N1CCN(C2CCCCC2)CC1)N(Cc1cn2ccc(-c3nnc(C(F)F)o3)cc2n1)c1cccc(F)c1` [Compound 4303, 4-cyclohexyl-N-((7-(5-(difluoromethyl)-1,3,4-oxadiazol-2-yl)imidazo[1,2-a]pyridin-2-yl)methyl)-N-(3-fluorophenyl)piperazine-1-sulfonamide]: the IC50 in assay [1] is more than 50000 nM; in assay [2] it was 167 nM. Further, the “HDAC6 selectivity (fold)” value in assay [2] is given as 299 fold.

Consider `O=C(CO)N1CCN(S(=O)(=O)N(Cc2cn3ccc(-c4nnc(C(F)F)o4)cc3n2)c2cccc(F)c2)CC1` [Compound 4308, N-((7-(5-(difluoromethyl)-1,3,4-oxadiazol-2-yl)imidazo[1,2-a]pyridin-2-yl)methyl)-N-(3-fluorophenyl)-4-(2-hydroxyacetyl)piperazine-1-sulfonamide], for which the IC50 in assay [1] is more than 50000 nM. Moreover, in assay [2], the “HDAC6 selectivity (fold)” value was 724 fold and the IC50 was found to be 69.1 nM.

As to `CN(C)C(=O)N1CCN(S(=O)(=O)N(Cc2cn3ccc(-c4nnc(C(F)F)o4)cc3n2)c2ccccc2)CC1` [Compound 4273, 4—(N-((7-(5-(difluoromethyl)-1,3,4-oxadiazol-2-yl)imidazo[1,2-a]pyridin-2-yl)methyl)-N-phenylsulfamoyl)-N, N-dimethylpiperazine-1-carboxamide], in assay [1], the IC50 is more than 50000 nM. Also, in assay [2], the “HDAC6 selectivity (fold)” value was 413 fold and the IC50 was 121 nM.

With `O=C(CO)N1CCC(S(=O)(=O)N(Cc2cn3ccc(-c4nnc(C(F)F)o4)cc3n2)c2cccc(F)c2)CC1` [Compound 4247, N-((7-(5-(difluoromethyl)-1,3,4-oxadiazol-2-yl)imidazo[1,2-a]pyridin-2-yl)methyl)-N-(3-fluorophenyl)-1-(2-hydroxyacetyl)piperidine-4-sulfonamide], the IC50 in assay [1] was more than 50000 nM. In assay [2], the “HDAC6 selectivity (fold)” value was 980 fold and the IC50 stood at 51 nM.

With `O=C(N1CCN(S(=O)(=O)N(Cc2cn3ccc(-c4nnc(C(F)F)o4)cc3n2)c2cccc(F)c2)CC1)C(F)(F)F` [Compound 4311, N-((7-(5-(difluoromethyl)-1,3,4-oxadiazol-2-yl)imidazo[1,2-a]pyridin-2-yl)methyl)-N-(3-fluorophenyl)-4-(2,2,2-trifluoroacetyl)piperazine-1-sulfonamide], the IC50 in assay [1] is more than 50000 nM. For the same compound, in assay [2], the “HDAC6 selectivity (fold)” value worked out at 510 fold and the IC50 stood at 98 nM.

As for `COC(=O)N1CCN(S(=O)(=O)N(Cc2cn3ccc(-c4nnc(C(F)F)o4)cc3n2)c2ccccc2)CC1` [Compound 4272, methyl 4-(N-((7-(5-(difluoromethyl)-1,3,4-oxadiazol-2-yl)imidazo[1,2-a]pyridin-2-yl)methyl)-N-phenylsulfamoyl)piperazine-1-carboxylate], the IC50 in assay [1] was more than 50000 nM. In addition, in assay [2], the “HDAC6 selectivity (fold)” value is on record as 298 fold and the IC50 turned out to be 168 nM.

As to `CC(=O)N1CCC(S(=O)(=O)N(Cc2cn3ccc(-c4nnc(C(F)F)o4)cc3n2)c2cccc(F)c2)CC1` [Compound 4245, 1-acetyl-N-((7-(5-(difluoromethyl)-1,3,4-oxadiazol-2-yl)imidazo[1,2-a]pyridin-2-yl)methyl)-N-(3-fluorophenyl)piperidine-4-sulfonamide], the IC50 in assay [1] is more than 50000 nM. For the same compound, in assay [2], the “HDAC6 selectivity (fold)” value is recorded as 1055 fold and the IC50 amounted to 47.4 nM.

In the case of `CCN1CCC(S(=O)(=O)N(Cc2cn3ccc(-c4nnc(C(F)F)o4)cc3n2)c2cccc(F)c2)CC1` [Compound 4237, N-((7-(5-(difluoromethyl)-1,3,4-oxadiazol-2-yl)imidazo[1,2-a]pyridin-2-yl)methyl)-1-ethyl-N-(3-fluorophenyl)-piperidine-4-sulfonamide], the IC50 in assay [1] was more than 50000 nM. Moreover, in assay [2], the “HDAC6 selectivity (fold)” value is 821 fold and the IC50 was 60.9 nM.

With `CN(C)C(=O)N1CCC(S(=O)(=O)N(Cc2cn3ccc(-c4nnc(C(F)F)o4)cc3n2)c2ccccc2)CC1` [Compound 4227, 4—(N-((7-(5-(difluoromethyl)-1,3,4-oxadiazol-2-yl)imidazo[1,2-a]pyridin-2-yl)methyl)-N-phenylsulfamoyl)-N, N-dimethylpiperidine-1-carboxamide], the IC50 in assay [1] is more than 50000 nM. Besides, in assay [2], the “HDAC6 selectivity (fold)” value is on record as 241 fold and the IC50 is 208 nM.

In the case of `O=S(=O)(C1CCN(c2ncccn2)CC1)N(Cc1cn2ccc(-c3nnc(C(F)F)o3)cc2n1)c1ccccc1` [Compound 4228, N-((7-(5-(difluoromethyl)-1,3,4-oxadiazol-2-yl)imidazo[1,2-a]pyridin-2-yl)methyl)-N-phenyl-1-(pyrimidin-2-yl)piperidine-4-sulfonamide], the IC50 in assay [1] was more than 50000 nM; in assay [2], 103 nM. The “HDAC6 selectivity (fold)” value in assay [2] worked out at 486 fold.

The IC50 is the concentration needed to halve the response being measured.

The record behind these values is patent publication US12466827B2, “1,3,4-oxadiazole derivative compounds as histone deacetylase 6 inhibitor, and the pharmaceutical composition comprising the same” (CHONG KUN DANG PHARMACEUTICAL CORP., priority 2020, dated 2025).
